Laboratory results taken from paper PMC10120551, “Novel Glu-based pyrazolo[3,4-d]pyrimidine analogues: design, synthesis and biological evaluation as DHFR and TS dual inhibitors” (Journal of Enzyme Inhibition and Medicinal Chemistry, 2023).

Assays:
[1] = test system: UACC-62; conditions: UACC-62, Melanoma; five-dose 0.01–100 µM
[2] = test system: HCC-2998; experiment: cells; conditions: Homo sapiens
[3] = test system: UACC-62; experiment: cells; conditions: Homo sapiens
[4] = test system: DU-145; conditions: DU-145, Prostate cancer; five-dose 0.01–100 µM
[5] = test system: HCT-116; experiment: cells; conditions: Homo sapiens
[6] = test system: T-47D; experiment: cells; conditions: Homo sapiens, T47D
[7] = test system: UO-31; conditions: UO-31, Renal cancer; five-dose 0.01–100 µM
[8] = test system: NCI-H23; experiment: cells; conditions: Homo sapiens
[9] = test system: HOP-62; experiment: cells; conditions: Homo sapiens
[10] = test system: NCI-H226; experiment: NCI one-dose screen (SRB); format: cell-based, human; conditions: NCI-H226, NSCLC; 10 µM single dose
Experimental: (§1) The growth percentage (G%) and cell viability of the herein target compounds 6a–l, 7a,b, and 9a–c have been screened towards a full panel of 59 cancer cells at NCI’s Developmental Therapeutics Program (NCI-DTP, MD, USA)[21]. The submitted analogues were initially examined for preliminary in vitro anticancer activity using sulforhodamine B (SRB) assay at 10 µM as a single dose to evaluate cell growth and viability according to the procedure of Drug Evaluation Branch[22]^,[23].
(§2) Different types of tumours – colon, NSCLC, leukaemia, CNS, renal, breast, ovarian, melanoma, and prostate cancers – were investigated as a full panel of 59 cell lines, and the attained results are cited in Figures S1–S17 (see Supplementary Material) where the value recorded is the growth relative to that of both the negative control and zero-time number of cells in which both growth inhibition (GI%; 0–100%) and lethality (L%; 0–100%) percentages can be identified. The growth inhibition means percentages (MGI%) for the examined target analogues towards the different treated 59 cancer cells were presented in Figure 2.
(§3) The designed analogues were submitted to NCI-Chemotherapeutic Agents Repository (MD, USA) for screening on a panel of 59 cancer cell lines. All compounds were initially examined at 10 µM concentration (Single-Dose Screen), and then the most efficient analogue 6i was screened further at 0.01–100 µM (Five-Dose Screen). The screening procedures were performed according to NCI-Drug Evaluation Branch protocol using SRB protein assay, as described previously[21]^,[66]. The experimental procedures were detailed in the Supporting Information.

[11] = test system: SK-MEL-28; experiment: NCI one-dose screen (SRB); format: cell-based, human; conditions: SK-MEL-28, Melanoma; 10 µM single dose
Experimental: as §1, §2, §3

[12] = test system: SF-295; experiment: NCI one-dose screen (SRB); format: cell-based, human; conditions: SF-295, CNS; 10 µM single dose
Experimental: as §1, §2, §3

[13] = test system: SN12C; experiment: NCI one-dose screen (SRB); format: cell-based, human; conditions: Renal cancer, 10 µM single dose
Experimental: as §1, §2, §3

[14] = test system: U251; experiment: NCI one-dose screen (SRB); format: cell-based, human; conditions: U251, CNS cancer; 10 µM single dose
Experimental: as §1, §2, §3

[15] = test system: COLO 205; experiment: NCI one-dose screen (SRB); format: cell-based, human; conditions: COLO 205, Colon cancer; 10 µM single dose
Experimental: as §1, §2, §3

[16] = test system: SK-MEL-5; experiment: NCI one-dose screen (SRB); format: cell-based, human; conditions: SK-MEL-5, Melanoma; 10 µM single dose
Experimental: as §1, §2, §3

[17] = test system: HOP-62; experiment: NCI one-dose screen (SRB); format: cell-based, human; conditions: HOP-62, NSCLC; 10 µM single dose
Experimental: as §1, §2, §3

[18] = test system: SF-539; experiment: NCI one-dose screen (SRB); format: cell-based, human; conditions: SF-539, CNS cancer; 10 µM single dose
Experimental: as §1, §2, §3

[19] = test system: A549/ATCC; experiment: NCI one-dose screen (SRB); format: cell-based, human; conditions: NSCLC, 10 µM single dose
Experimental: as §1, §2, §3

[20] = test system: SF-268; experiment: NCI one-dose screen (SRB); format: cell-based, human; conditions: SF-268, CNS; 10 µM single dose
Experimental: as §1, §2, §3

[21] = test system: HT29; experiment: NCI one-dose screen (SRB); format: cell-based, human; conditions: HT29, Colon cancer; 10 µM single dose
Experimental: as §1, §2, §3

[22] = test system: SNB-19; experiment: NCI one-dose screen (SRB); format: cell-based, human; conditions: SNB-19, CNS cancer; 10 µM single dose
Experimental: as §1, §2, §3

[23] = test system: OVCAR-3; experiment: NCI one-dose screen (SRB); format: cell-based, human; conditions: OVCAR-3, Ovarian; 10 µM single dose
Experimental: as §1, §2, §3

[24] = test system: PC-3; experiment: NCI one-dose screen (SRB); format: cell-based, human; conditions: PC-3, Prostate; 10 µM single dose
Experimental: as §1, §2, §3

[25] = test system: RXF 393; experiment: NCI one-dose screen (SRB); format: cell-based, human; conditions: RXF 393, Renal; 10 µM single dose
Experimental: as §1, §2, §3

[26] = test system: OVCAR-8; experiment: NCI one-dose screen (SRB); format: cell-based, human; conditions: OVCAR-8, Ovarian; 10 µM single dose
Experimental: as §1, §2, §3

[27] = test system: HCT-116; experiment: NCI one-dose screen (SRB); format: cell-based, human; conditions: HCT-116, Colon cancer; 10 µM single dose
Experimental: as §1, §2, §3

[28] = test system: HOP-92; experiment: NCI one-dose screen (SRB); format: cell-based, human; conditions: HOP-92, NSCLC; 10 µM single dose
Experimental: as §1, §2, §3

[29] = test system: NCI/ADR-RES; experiment: NCI one-dose screen (SRB); format: cell-based, human; conditions: Ovarian cancer, 10 µM single dose
Experimental: as §1, §2, §3

[30] = test system: NCI-H522; experiment: NCI one-dose screen (SRB); format: cell-based, human; conditions: NCI-H522, NSCLC; 10 µM single dose
Experimental: as §1, §2, §3

[31] = test system: EKVX; experiment: NCI one-dose screen (SRB); format: cell-based, human; conditions: NSCLC, 10 µM single dose
Experimental: as §1, §2, §3

[32] = test system: MALME-3M; conditions: Melanoma, five-dose 0.01–100 µM

CCOC(=O)CC[C@H](NC(=O)c1ccc(NC(=O)Cn2cnc3c(c(C)nn3-c3ccc(Br)cc3)c2=O)cc1)C(=O)OCC [Compound 6i]
TGI [1]: 32.1 µM
GI50 ([2]; HCC 2998): 35.1 µM
CC50 ([2]; HCC 2998, read-out: LC50): > 100 µM
GI50 ([3]; UACC-62): 13.3 µM
CC50 ([3]; UACC-62, read-out: LC50): 77.8 µM
TGI [4]: 28.8 µM
GI50 ([5]; HCT-116): 9.85 µM
CC50 ([5]; HCT-116, read-out: LC50): > 100 µM
GI50 [6]: 45.6 µM
CC50 ([6]; read-out: LC50): > 100 µM
TGI [7]: 55.9 µM
GI50 ([8]; NCI-H23): 7.64 µM
CC50 ([8]; NCI-H23, read-out: LC50): 82.1 µM
GI50 ([9]; HOP-62): 5.11 µM
CC50 ([9]; HOP-62, read-out: LC50): 57.5 µM
L% (lethality) [10]: 37.32%
GI% [11]: 75.54%
GI% [12]: 89.78%
GI% [13]: 57.69%
GI% [14]: 53.30%
GI% [15]: 71.69%
L% (lethality) [16]: 1.38%
L% (lethality) [17]: 8.41%
GI% [18]: 54.23%
GI% [19]: 71.36%
GI% [20]: 85.11%
GI% [21]: 59.90%
GI% [22]: 61.23%
GI% [23]: 96.83%
GI% [24]: 91.71%
L% (lethality) [25]: 22.73%
GI% [26]: 87.86%
GI% [27]: 70.04%
GI% [28]: 78.29%
GI% [29]: 51.78%
GI% [30]: 52.34%
GI% [31]: 78.12%
TGI [32]: 29.9 µM
